Source: a melting point compilation (Tetko et al.; mined from patent text by program, amines drawn as free bases though some values may be those of a salt)

| Compound | melting point [°C] |
| --- | --- |
| Fc1cc(Cl)ccc1-n1nn[nH]c1=S | 128 |
| c1cc(Cn2ncc3c(N4CCNCC4)ncnc32)ccn1 | 121 |
| N#Cc1cnc2cc(F)c(OCCN3CCOCC3)cc2c1Cl | 163 to 164 |
| CNC(=NCCCCc1nccs1)NC#N | 87 to 89.5 |
| COC(=O)NN(C(=O)Cl)c1cccc2c1OCC2 | 110 to 112 |
| COc1cccc(C(O)(c2nccs2)C(F)(F)F)c1 (stereo not given) | 88 to 92 |
| O=C(O)CCc1[nH]nc2c1CCC2 | 157 to 159 |
| CSC1=Nc2ccccc2C(c2ccccc2)=NC1 | 167 to 168 |
| COC(=O)CCC(=O)N[C@@H](CO)c1ccccc1 | 59 to 61 |
| COC(=O)c1cccc(NC=O)n1 | 134 to 136 |
| CN(C)CC1(C2(O)CCCCC2)Cc2cc3c(cc21)NCC3 (stereo not given) | 159 to 161 |
| CC(=O)N1CCc2c([nH]c3ccccc23)C1CCCCl (stereo not given) | 166 to 168 |
| CNc1c2c(nc3ccc([N+](=O)[O-])cc13)CCCC2=O | 208 |
| O=[N+]([O-])c1ccc(NCCc2ccccc2)cc1 | 57 to 59 |
| CC(=O)OCC1OC(n2cnc(C(N)=O)c2Br)C(OC(C)=O)C1OC(C)=O (stereo not given) | 133 to 135 |
| CCCCc1nc2cc(Br)cc(C(=O)O)c2n1Cc1ccccc1Cl | 254 to 255 |
| COc1cc(C)nc(NC(=O)NS(=O)(=O)c2c(C)nn(C)c2S(=O)(=O)N(C)C)n1 | 215 to 217 |
| CCCCCCCCN(CCCCCCCC)C(=O)Nc1ccccc1CCc1cc(C(C)(C)C)c(O)c(C(C)(C)C)c1 | 55 to 60 |
| CCOC(=O)Nc1ccc(C(=O)CCC(=O)O)cc1 | 206 to 207 |
| C=Cc1cc(C(C)(C)C)c(O)c(C(C)(C)C)c1 | 36 to 39 |
| Cc1cccc(C(=O)Nc2c[nH]nc2C(=O)NCCO)n1 | 252 to 253 |
| CS(=O)(=O)Nc1cccc(OCC#N)c1 | 91 to 92 |
| N#Cc1ccc(-c2cnco2)cc1 | 140 |
| CC(C#N)(CCC(=O)O)SC(=S)c1ccccc1 (stereo not given) | 97 to 99 |
| CC1(C)CC(N)(C(N)=O)CC(C)(C)N1 | 142 to 144 |
| N#CCNC(=O)C1(NC(=O)c2ccc(C3CCN(C4CCCC4)CC3)cc2)CCCCC1 | 233 to 234 |

| Compound | melting point [°C] |
| --- | --- |
| C=CCCOc1ccc(C[C@H](NC(=O)OC(C)(C)C)C(=O)N[C@@H](CC(C)C)C(=O)O)cc1 | 68 to 70 |
| NC(=O)c1snc(-c2cccc(C(F)(F)F)c2)c1N | 124 |
| O=C(Nc1cc2cccnc2cc1N1CCCCC1)c1csc2cncnc12 | > 300 |
| Nc1ccc(-n2cnnc2)cc1C(F)(F)F | 196 to 198 |
| Cc1ccnc(-c2ccc(CBr)cc2)n1 | 104 to 106 |
| O=C(/C=C\c1ccccc1)Nc1ccccc1 | 101 to 102 |
| NC(=O)CCCCCCCCCCC(=O)O | 129 to 131 |
| CCOC(=O)c1c(C)nc(C(C)C)c2nnn(CC)c12 | 55 to 57 |
| CCN(C)C(=O)Nc1cc(C(C)(C)C)on1 | 88.5 to 89.5 |
| OCc1cn2c(n1)CN=C(c1ccccc1F)c1cc(Cl)ccc1-2 | 196 to 200 |
| CC(C)(C(=O)c1cccs1)C(=O)c1cccs1 | 153 to 156 |
| O=c1[nH]cnc2cc(Br)sc12 | 238 to 240 |
| CSc1ccc(Nc2cscc2C#N)c([N+](=O)[O-])c1 | 167 to 169 |
| COc1ccc(C(=O)SC)c(O)c1 | 56 to 57 |
| CS(=O)(=O)c1ccc(C(=O)CC(=O)C2CC2)c(Cl)c1-c1nccs1 | 146 to 147 |
| CCN(C=O)c1nc2ccc(CCc3ccco3)cc2o1 | 54 to 58 |
| CC(=O)NCC1CN(c2c(F)c(N)c3c(=O)c(C(=O)O)cn(C4CC4)c3c2F)CCO1 (stereo not given) | 228 to 229 |
| COC(=O)c1c(CC#N)ncn1C1CCCCO1 (stereo not given) | 82 to 83 |
| COC(=O)CNc1ccc(CNC(=O)C2Cc3ccccc3N2S(=O)(=O)c2ccc(-c3cccc(C(F)(F)F)c3)cc2)cc1 (stereo not given) | 85 |
| OCCCOc1ccc(Cl)cc1Cl | 53 to 55 |
| O=C1c2ccccc2SCN1CCO[N+](=O)[O-] | 68 to 69 |
| Nc1nc2c(s1)CN(C(=S)NC(=O)c1ccccc1)CC2 | 158 to 160 |
| Clc1ccc(-c2nc3c(c(NC4CCCC4)n2)CCC3)cc1 | 167 |
| OC(CNCC1CCCO1)c1ccccc1 (stereo not given) | 70 to 72 |
| O=C(Nc1nc2c(ncn2CC(O)CF)c(=O)[nH]1)c1ccccc1 (racemic) | 178 |

Second part, the compound after the results:

| melting point [°C] | Compound |
| --- | --- |
| 113 | Nc1ccc(N2CCN(CCCN3c4cccc5cccc(c45)S3(=O)=O)CC2)cc1 |
| 210 to 213 | COc1cc(-c2ccc(O)c(C3(C)CCCCC3)c2)cc(CC2SC(N3CCOCC3)=NC2=O)c1OC (stereo not given) |
| > 310 | Cc1nn(C)c2[nH]c(=O)c3ccccc3c12 |
| 104 to 106 | COc1cncnc1N1CCN(CCCc2c[nH]c3ccc(-c4c(NC(C)C)c(=O)c4=O)cc23)CC1 |
| 201 to 203 | COc1nc(C)c(N2CCCn3c2nc2c(OC)ccc(C(OC(F)F)C(F)(F)F)c23)c(C)n1 (stereo not given) |
| 125 to 127 | CCc1ccc(C(=O)O)c2ccccc12 |
| 94 to 95 | CN1C[C@@H](C(=O)OCc2ccccc2)NC1=O |
| 168 | CCOC(=O)C(CCc1ccccc1)NC1CSC(c2cccs2)CN(CC(=O)O)C1=O (stereo not given) |
| 178 to 180 | Nc1sc2c(c1C(=O)c1ccc3ccccc3c1)CCC2 |
| 175 | CC1(C)Oc2ccc(Br)cc2C(n2ccccc2=O)=C1CBr |
| 105 to 107 | COC(=O)c1ccc(O)c(C(=O)CC(=O)c2ccccc2OC(C)C)c1 |
| > 250 | CC1(C)C(=O)Nc2cc3oc(-c4csnn4)nc3cc21 |
| 144 to 145 | O=C(O)C(=O)c1ccc(OCCOc2ccc3c(c2)CCCC3)cc1 |
| 38 to 41 | COc1ccc(OC(CCCN2CC3CCC(C2)N3C(=O)OC(C)(C)C)c2ccc(C#N)cc2)cc1OC (stereo not given) |
| 89 to 93 | CCCCCCCCCCCCCC(=O)Nc1ccc(OC)c(Nc2cc(=O)n(-c3c(Cl)cc(Cl)cc3Cl)[nH]2)c1 |
| 174 to 175 | O=C(O)CCC(O)c1ccc(-c2ccccc2F)cc1 (stereo not given) |
| 148 to 150 | CC1Cc2cc3c(cc2C(c2ccc([N+](=O)[O-])cc2)=NN1C(=O)CCCC(=O)O)OCO3 (stereo not given) |
| > 300 | Nc1ccc(-c2nc(Cl)c3c(=O)[nH][nH]c(=O)c3c2N)cc1 |
| 214 | Cc1nc(-c2ccc(C(F)(F)F)cc2)oc1Sc1ccc(Cc2nn[nH]n2)cc1 |
| 160 to 162 | Cc1c(NC(=O)c2ccc(OCC3CCOC3)cc2)ccc2cc(CN3CCC(C)(O)CC3)cnc12 (stereo not given) |
| 146 to 149 | Cn1cc(CO)c(=O)c2ccc(C(C)(C)C)cc21 |
| 128 | Nc1ccc(OCCN2CCN(c3nsc4ccccc34)CC2)cc1 |
| 110 to 112 | CC(C)c1nn(-c2ccccc2)c(-c2ccc(F)cc2)c1C=O |
| 84 | COC(=O)c1ccc2c(C(=O)c3ccccc3)c(C(=O)OC)ccc2c1 |
| 130 to 131 | COc1ccc(S(=O)(=O)NCC2CCN(C[C@H]3COc4ccc(Cl)cc4O3)CC2)cc1 |
| 190 to 191 | COCC(=O)Nc1ccc2ncnc(Nc3cccc(Br)c3)c2c1 |
| 183 to 185 | Cc1cccc2c1C(=O)c1cc(CC(=O)O)ccc1OC2 |

| melting point [°C] | Compound |
| --- | --- |
| 217 to 219 | Cn1c(=O)c(-c2c(Cl)cccc2Cl)cc2cnc(NCc3ccccc3)nc21 |
| 110 to 112 | CCCC(=O)N(C)Cc1c(-c2ccc(C)cc2)nc2n1-c1ccccc1CC2 |
| 164 to 167 | NC(=O)Cc1cccc(Cn2ccc(OCc3ccc(F)cc3F)c(Br)c2=O)c1 |
| 145 to 146 | Cc1ccc2c(c1)nc(/C=C/c1ccccc1)n2-c1ccccn1 |
| 256 to 258 | COc1cc2c(cc1-c1c(C)nn(C)c1C)-c1c(-c3cccs3)c3c(n1CC2)C(=O)N(C(C)C)CCN(C(=O)CCC(F)(F)F)C3 |
| 161 to 163 | COc1cc2c(c(Cl)c1Cl)C(=O)C(C)(c1ccccc1)C2 (stereo not given) |
| 138 to 139 | Cc1cc2c(nc1OCCCCN1CCN(c3cccc(Cl)c3Cl)CC1)NC(=O)CC2 |
| 99 to 100 | COc1ccc(-c2ccc(C=O)cc2)cc1 |
| 157 to 160 | Clc1c(-c2ccc(OCc3ccccc3)cc2)[nH]c2ccc(OCc3ccccc3)cc12 |
| > 320 | OCn1cc(-c2cc3nccnc3[nH]2)c2ccccc21 |
| 140 to 141 | COC(=O)c1sc2cncc(Oc3ccc(Cl)cc3)c2c1C |
| 99 to 109 | O=c1[nH]c2ccc(CCCNCC[C@H]3CC[C@H](c4ccc(F)cc4)CC3)cc2o1 |
| 112 to 115 | Cn1nc(-c2c(Cl)cccc2Cl)nc1Cc1ccc(Cl)cc1 |
| 172 to 174 | COc1ccc(CNc2nnc(N3CCC(O)CC3)c3ccc(C#N)cc23)cc1Cl |
| 266 to 267 | CCc1cn(C2CC(O)C(CNC(=O)Cc3ccccc3NC(C)=O)O2)c(=O)[nH]c1=O (stereo not given) |
| 141 to 142 | COc1cc(CC(COC(C)=O)NC(=O)c2ccccc2)cc2c1OC(C)(C)C2 (stereo not given) |
| 167 to 168 | CCC(C)(C)C(=O)Oc1cccc2ccc(OCCOc3ccc(C(=O)C(=O)O)cc3)cc12 |
| 214 to 216 | O=C(c1nc(-c2ccc(F)cc2)c(-c2ccc(F)cc2)[nH]1)C(F)(F)F |
| 225 to 228 | O=C1NC(=O)C(=Cc2csc(NC(c3ccccc3)(c3ccccc3)c3ccccc3)n2)S1 |
| 248 | CCN(CC)CCOc1ccc(Nc2ncc3c(n2)NC(=O)N(c2c(Cl)cccc2Cl)C3)cc1 |
| 196 to 198 | CC1CCC(=NN(C)c2ccccc2)c2ncc(C(=O)O)c(=O)n21 (stereo not given) |
| 103 to 105 | Cc1ccc2[nH]cc(C3C(=O)N(C)C(=O)C3c3cn(C)c4ccc(C)cc34)c2c1 (stereo not given) |
| 214 | COc1ccc(-n2c(C)nnc2S)cc1 |
| 236 | CC(C)(C)NS(=O)(=O)c1cnc(-c2cn(-c3cc(C(F)(F)F)cc(-c4ccc(C(F)(F)F)cc4)n3)cn2)s1 |
| 217 to 218 | COc1cc(C=CC=C2SC(=O)NC2=O)cc(OC)c1OCc1ccccc1 |
| 123 to 125 | Cc1ccc(-c2ccccc2-c2n[nH]c(=O)o2)cc1 |
| 208 to 211 | CSc1nc(C)c(Cc2cccnc2)c(=O)[nH]1 |
